pEC50: −log10 of the molar value.
Legend:
hGIPR = molecular target: T1, hGIPR (Homo sapiens, UniProt P48546); experiment: hGIPR CreLuc assay in 0.5% and 100% plasma (CHO CRE-luciferase reporter cells); type: cell-based; details: 0.5% human plasma, read-out: hGIPR 0.5% hP
T1 construct: expressed in transfected cells; host or cells: CHO CRE-luciferase reporter cells
T1 sequence (P48546 22-466): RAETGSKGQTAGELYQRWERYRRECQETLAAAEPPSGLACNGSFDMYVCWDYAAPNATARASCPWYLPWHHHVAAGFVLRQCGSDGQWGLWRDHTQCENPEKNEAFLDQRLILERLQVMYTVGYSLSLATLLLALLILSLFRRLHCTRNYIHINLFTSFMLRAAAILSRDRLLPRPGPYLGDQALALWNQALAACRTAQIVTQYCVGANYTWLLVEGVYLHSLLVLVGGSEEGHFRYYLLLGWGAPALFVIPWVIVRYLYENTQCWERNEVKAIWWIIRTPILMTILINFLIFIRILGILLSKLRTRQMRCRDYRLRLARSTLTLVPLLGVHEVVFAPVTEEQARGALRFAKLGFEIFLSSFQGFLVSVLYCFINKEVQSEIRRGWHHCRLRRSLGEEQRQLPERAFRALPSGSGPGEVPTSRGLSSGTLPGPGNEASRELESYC
Source text: CHO and HEK-293 recombinant cell lines express a luciferase reporter gene under control of the CAMP responsive element (CRE). As a second recombinant protein the GLP-1 and NPY2 receptors were expressed in the reporter gene HEK cells, and the GIP receptor was expressed in the reporter gene CHO cells, respectively. Stimulation of these recombinant cells with an agonist leads to an increase of intracellular CAMP levels. In the presence of CAMP, the transcription factor CRE binding protein (CREB) binds to the CRE and to the CREB binding protein (CBP), which leads to transcription of the luciferase reporter gene. Peptides upon serial-dilution in 100% DMSO were transferred into 384-well assay plates with 5 μl pre-dispensed assay buffer (1×HBSS, 20 mM HEPES, pH7.4 supplemented with 0.5% human plasma) using acoustic dispensing on a Labcyte ECHO. Cryo-preserved transgenic reporter gene cells were thawed in assay buffer. 20 μl (10.000 cells/well) were added to the plate with the peptides and incubated for 4 hours at 37° C. in a humidified incubator. Following incubation, assay plates are equilibrated to room temperature, followed by addition of 25 μl of Bright-Glo™ Luciferase reagent, incubation at room temperature for 10 minutes and analysis of luminescence (Envision Reader). […] EC50 values were calculated by non-linear regression using sigmoid concentration-response with variable slope.
The same assays were run in the presence of 100% plasma with no additional buffer constituents.

[1] = Solubility in 0.1 M phosphate buffer at pH 7; type: physicochemical; details: 0.1 M phosphate buffer at pH 7, 10 mg/mL final peptide concentration, shaking 2 hours at room temperature, peptides as TFA-salts, measured sample pH 6.5-7.0

Compound	pEC50 (hGIPR)	solubility at 2 h [1]	solubility ([1]; read-out: Solubility)
CC[C@H](C)[C@H](NC(=O)[C@H](CC(C)C)NC(=O)[C@H](Cc1c[nH]cn1)NC(=O)[C@H](CCCNC(=N)N)NC(=O)[C@@H](NC(=O)[C@H](Cc1ccccc1)NC(=O)[C@H](C)NC(=O)C(C)(C)NC(=O)[C@H](CCC(N)=O)NC(=O)[C@H](C)NC(=O)[C@H](CCC(N)=O)NC(=O)[C@H](CCCCN)NC(=O)[C@H](CCC(=O)O)NC(=O)[C@H](CC(C)C)NC(=O)C(C)(C)NC(=O)[C@@H](NC(=O)[C@H](CO)NC(=O)[C@H](Cc1ccc(O)cc1)NC(=O)[C@H](CC(=O)O)NC(=O)[C@H](CO)NC(=O)[C@@H](NC(=O)[C@H](Cc1ccccc1)NC(=O)[C@@H](NC(=O)CNC(=O)[C@H](CCC(=O)O)NC(=O)C(C)(C)NC(=O)[C@@H](N)Cc1ccc(O)cc1)[C@@H](C)O)[C@@H](C)O)[C@@H](C)CC)C(C)C)C(=O)N[C@@H](CC(N)=O)C(=O)N[C@@H](CCCCNC(=O)[C@@H](N)CCCCNC(=O)CC[C@H](NC(=O)CC[C@H](NC(=O)CC[C@H](NC(=O)CC[C@H](NC(=O)CC[C@H](NC(=O)CC[C@H](NC(=O)CCCCCCCCCCCCCCCCCCC(=O)O)C(=O)O)C(=O)O)C(=O)O)C(=O)O)C(=O)O)C(=O)O)C(=O)N[C@@H](CC(C)C)C(=O)N[C@H](C(=O)N[C@@H](CCCNC(=N)N)C(=O)N[C@@H](CCC(N)=O)C(=O)N[C@@H](CCCNC(=N)N)C(=O)N[C@@H](Cc1ccc(O)cc1)C(N)=O)[C@@H](C)O [Compound 27, Y-Aib-E-G-T-F-T-S-D-Y-S-I-Aib-L-E-K-Q-A-Q-Aib-A-F-V-R-H-L-I-N-K(1,3)-L-T-R-Q-R-Y-NH2.C20DA-gGlu-gGlu-gGlu-gGlu-gGlu-gGlu-eLys(1,2)]	9.22	10000 µg/mL	
CC[C@H](C)[C@H](NC(=O)[C@H](CC(C)C)NC(=O)[C@H](Cc1c[nH]cn1)NC(=O)[C@H](CCCNC(=N)N)NC(=O)[C@@H](NC(=O)[C@H](Cc1ccccc1)NC(=O)[C@H](C)NC(=O)C(C)(C)NC(=O)[C@H](CCC(N)=O)NC(=O)[C@H](C)NC(=O)[C@H](CCC(N)=O)NC(=O)[C@H](CCCCN)NC(=O)[C@H](CCC(=O)O)NC(=O)[C@H](CC(C)C)NC(=O)C(C)(C)NC(=O)[C@@H](NC(=O)[C@H](CO)NC(=O)[C@H](Cc1ccc(O)cc1)NC(=O)[C@H](CC(=O)O)NC(=O)[C@H](CO)NC(=O)[C@@H](NC(=O)[C@H](Cc1ccccc1)NC(=O)[C@@H](NC(=O)CNC(=O)[C@H](CCC(=O)O)NC(=O)C(C)(C)NC(=O)[C@@H](N)Cc1ccc(O)cc1)[C@@H](C)O)[C@@H](C)O)[C@@H](C)CC)C(C)C)C(=O)N[C@@H](CC(N)=O)C(=O)N[C@@H](CCCCNC(=O)CC[C@H](NC(=O)CC[C@H](NC(=O)CC[C@H](NC(=O)[C@@H](N)CCCCNC(=O)CC[C@H](NC(=O)CC[C@H](NC(=O)CC[C@H](NC(=O)CCCCCCCCCCCCCCCCC(=O)O)C(=O)O)C(=O)O)C(=O)O)C(=O)O)C(=O)O)C(=O)O)C(=O)NC(C)(C)C(=O)N[C@H](C(=O)N[C@@H](CCCNC(=N)N)C(=O)N[C@@H](CCC(N)=O)C(=O)N[C@@H](CCCNC(=N)N)C(=O)N[C@@H](Cc1ccc(O)cc1)C(N)=O)[C@@H](C)O [Compound 168, Y-Aib-E-G-T-F-T-S-D-Y-S-I-Aib-L-E-K-Q-A-Q-Aib-A-F-V-R-H-L-I-N-K(1,3)-Aib-T-R-Q-R-Y-NH2.C18DA-gGlu-gGlu-gGlu-eLys-gGlu-gGlu-gGlu(1,2)]	9.70	8200 µg/mL	
CC[C@H](C)[C@H](NC(=O)[C@H](CC(C)C)NC(=O)[C@H](Cc1c[nH]cn1)NC(=O)[C@H](CCCNC(=N)N)NC(=O)[C@@H](NC(=O)[C@H](Cc1ccccc1)NC(=O)[C@H](C)NC(=O)C(C)(C)NC(=O)[C@H](CCC(N)=O)NC(=O)[C@H](C)NC(=O)[C@H](CCC(N)=O)NC(=O)[C@H](CCC(=O)O)NC(=O)[C@H](CCC(=O)O)NC(=O)[C@H](CC(C)C)NC(=O)C(C)(C)NC(=O)[C@@H](NC(=O)[C@H](CO)NC(=O)[C@H](Cc1ccc(O)cc1)NC(=O)[C@H](CC(=O)O)NC(=O)[C@H](CO)NC(=O)[C@@H](NC(=O)[C@H](Cc1ccccc1)NC(=O)[C@@H](NC(=O)CNC(=O)[C@H](CCC(=O)O)NC(=O)C(C)(C)NC(=O)[C@@H](N)Cc1ccc(O)cc1)[C@@H](C)O)[C@@H](C)O)[C@@H](C)CC)C(C)C)C(=O)N[C@@H](CC(N)=O)C(=O)N[C@@H](CCCCNC(=O)CC[C@H](NC(=O)CC[C@H](NC(=O)CC[C@H](NC(=O)CC[C@H](NC(=O)CC[C@H](NC(=O)CCCCCCCCCCCCCCCCC(=O)O)C(=O)O)C(=O)O)C(=O)O)C(=O)O)C(=O)O)C(=O)NC(C)(C)C(=O)N[C@H](C(=O)N[C@@H](CCCNC(=N)N)C(=O)N[C@@H](CCC(N)=O)C(=O)N[C@@H](CCCNC(=N)N)C(=O)N[C@@H](Cc1ccc(O)cc1)C(N)=O)[C@@H](C)O [Compound 75, Y-Aib-E-G-T-F-T-S-D-Y-S-I-Aib-L-E-E-Q-A-Q-Aib-A-F-V-R-H-L-I-N-K(1,3)-Aib-T-R-Q-R-Y-NH2.C18DA-gGlu-gGlu-gGlu-gGlu-gGlu(1,2)]	9.52	4300 µg/mL	
CC[C@H](C)[C@H](NC(=O)[C@H](CC(C)C)NC(=O)[C@H](Cc1c[nH]cn1)NC(=O)[C@H](CCCNC(=N)N)NC(=O)[C@@H](NC(=O)[C@H](Cc1ccccc1)NC(=O)[C@H](C)NC(=O)C(C)(C)NC(=O)[C@H](CCC(=O)O)NC(=O)[C@H](C)NC(=O)[C@H](CCC(N)=O)NC(=O)[C@H](CCCCN)NC(=O)[C@H](CCC(=O)O)NC(=O)[C@H](CC(C)C)NC(=O)C(C)(C)NC(=O)[C@@H](NC(=O)[C@H](CO)NC(=O)[C@H](Cc1ccc(O)cc1)NC(=O)[C@H](CC(=O)O)NC(=O)[C@H](CO)NC(=O)[C@@H](NC(=O)[C@H](Cc1ccccc1)NC(=O)[C@@H](NC(=O)CNC(=O)[C@H](CCC(=O)O)NC(=O)C(C)(C)NC(=O)[C@@H](N)Cc1ccc(O)cc1)[C@@H](C)O)[C@@H](C)O)[C@@H](C)CC)C(C)C)C(=O)N[C@@H](CC(N)=O)C(=O)N[C@@H](CCCCNC(=O)[C@@H](N)CCCCNC(=O)[C@@H](N)CCCCNC(=O)CC[C@H](NC(=O)CC[C@H](NC(=O)CC[C@H](NC(=O)CC[C@H](NC(=O)CC[C@H](NC(=O)CC[C@H](NC(=O)CCCCCCCCCCCCCCCCCCC(=O)O)C(=O)O)C(=O)O)C(=O)O)C(=O)O)C(=O)O)C(=O)O)C(=O)NC(C)(C)C(=O)N[C@H](C(=O)N[C@@H](CCCNC(=N)N)C(=O)N[C@@H](CCC(N)=O)C(=O)N[C@@H](CCCNC(=N)N)C(=O)N[C@@H](Cc1ccc(O)cc1)C(N)=O)[C@@H](C)O [Compound 82, Y-Aib-E-G-T-F-T-S-D-Y-S-I-Aib-L-E-K-Q-A-E-Aib-A-F-V-R-H-L-I-N-K(1,3)-Aib-T-R-Q-R-Y-NH2.C20DA-gGlu-gGlu-gGlu-gGlu-gGlu-gGlu-eLys-eLys(1,2)]		9000 µg/mL	
CC[C@H](C)[C@H](NC(=O)[C@H](CC(C)C)NC(=O)[C@H](Cc1c[nH]cn1)NC(=O)[C@H](CCCNC(=N)N)NC(=O)[C@@H](NC(=O)[C@H](Cc1ccccc1)NC(=O)[C@H](C)NC(=O)C(C)(C)NC(=O)[C@H](CCC(N)=O)NC(=O)[C@H](C)NC(=O)[C@H](CCC(N)=O)NC(=O)[C@H](CCCCN)NC(=O)[C@H](CCC(=O)O)NC(=O)[C@H](CC(C)C)NC(=O)C(C)(C)NC(=O)[C@@H](NC(=O)[C@H](CO)NC(=O)[C@H](Cc1ccc(O)cc1)NC(=O)[C@H](CC(=O)O)NC(=O)[C@H](CO)NC(=O)[C@@H](NC(=O)[C@H](Cc1ccccc1)NC(=O)[C@@H](NC(=O)CNC(=O)[C@H](CCC(=O)O)NC(=O)C(C)(C)NC(=O)[C@@H](N)Cc1ccc(O)cc1)[C@@H](C)O)[C@@H](C)O)[C@@H](C)CC)C(C)C)C(=O)N[C@@H](CC(N)=O)C(=O)N[C@@H](CCCCNC(=O)[C@@H](N)CCNC(=O)CC[C@H](NC(=O)CC[C@H](NC(=O)CC[C@H](NC(=O)CC[C@H](NC(=O)CC[C@H](NC(=O)CC[C@H](NC(=O)CCCCCCCCCCCCCCCCC(=O)O)C(=O)O)C(=O)O)C(=O)O)C(=O)O)C(=O)O)C(=O)O)C(=O)NC(C)(C)C(=O)N[C@H](C(=O)N[C@@H](CCCNC(=N)N)C(=O)N[C@@H](CCC(N)=O)C(=O)N[C@@H](CCCNC(=N)N)C(=O)N[C@@H](Cc1ccc(O)cc1)C(N)=O)[C@@H](C)O [Compound 120, Y-Aib-E-G-T-F-T-S-D-Y-S-I-Aib-L-E-K-Q-A-Q-Aib-A-F-V-R-H-L-I-N-K(1,3)-Aib-T-R-Q-R-Y-NH2.C18DA-gGlu-gGlu-gGlu-gGlu-gGlu-gGlu-gDab(1,2)]			4700 µg/mL

Source: US20250382344A1, “Soluble GLP1/GIP/NPY2 Receptor Triple Agonists” (Boehringer Ingelheim International GmH, priority 2024, published 2025)
